Experimental data: ChEMBL document CHEMBL1130777, “L-374,087, an efficacious, orally bioavailable, pyridinone acetamide thrombin inhibitor” (Bioorg Med Chem Lett, 1998)

Key:
[1] = biological target: Prothrombin (Homo sapiens, UniProt P00734); experiment: Binding affinity towards thrombin was evaluated
[2] = biological target: Serine protease 1 (Homo sapiens, UniProt P07477); experiment: Binding affinity towards trypsin was evaluated
[3] = Compound was evaluated for the half life period after iv administration in cynomolgus monkey; assay type: ADME, organism-based; settings: cercopithecidae, in vivo
[4] = Oral bioavailability after 5 mg/kg in cynomolgus monkey was determined; assay type: ADME, organism-based; settings: cercopithecidae, in vivo, read-out: Bioavailabiility
[5] = Compound was evaluated for the oral bioavailability after oral administration in dog.; assay type: ADME, organism-based, Canis lupus familiaris; settings: in vivo, read-out: Bioavailabiility
[6] = Maximum concentration was evaluated after 75 min after administration in dog; assay type: ADME, organism-based, Canis lupus familiaris; settings: in vivo
[7] = Compound was evaluated for the half life period after iv administration in Beagle dog.; assay type: ADME, organism-based, Canis lupus familiaris; settings: in vivo
[8] = test system: Rattus norvegicus; experiment: Incidence of occlusion was determined in the rat ferric chloride arterial thrombosis model at 10 dose ug/kg/min after intravenous administration; 0/9; assay type: functional
[9] = test system: Rattus norvegicus; experiment: Incidence of occlusion was determined in the rat ferric chloride arterial thrombosis model at 3 dose ug/kg/min after intravenous administration; 2/6; assay type: functional
[10] = test system: Rattus norvegicus; experiment: Incidence of occlusion was determined in the rat ferric chloride arterial thrombosis model at 5 dose ug/kg/min after intravenous administration; 1/6; assay type: functional
[11] = test system: Rattus norvegicus; experiment: Incidence of occlusion was determined in the rat ferric chloride arterial thrombosis model at 1 dose ug/kg/min after intravenous administration; 5/6; assay type: functional

Serine protease 1, sequence (P07477 whole entry): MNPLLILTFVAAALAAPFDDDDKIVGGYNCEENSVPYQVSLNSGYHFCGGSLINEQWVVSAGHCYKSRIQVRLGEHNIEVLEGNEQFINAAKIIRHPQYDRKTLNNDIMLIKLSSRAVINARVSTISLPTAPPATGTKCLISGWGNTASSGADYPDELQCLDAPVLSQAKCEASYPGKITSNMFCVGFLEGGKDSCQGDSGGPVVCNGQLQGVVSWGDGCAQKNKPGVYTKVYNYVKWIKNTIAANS

| Ki [1] [nM] | Ki [2] [nM] | SMILES | further results |
| --- | --- | --- | --- |
| 0.33 | 2100 | Cc1cc(N)nc(C)c1CNC(=O)Cn1c(C)ccc(NS(=O)(=O)Cc2ccccc2)c1=O | – |
| 12 | 1500 | Cc1cc(N)ncc1CNC(=O)Cn1c(C)ccc(NS(=O)(=O)Cc2ccccc2)c1=O | – |

The next lines start with the compound.

| SMILES | Ki [1] [nM] | Ki [2] [nM] | further results |
| --- | --- | --- | --- |
| Cc1nc(N)ccc1CNC(=O)Cn1c(C)ccc(NCCc2ccccc2)c1=O | 2.3 | 4300 | – |
| Cc1ccc(NS(=O)(=O)Cc2ccccc2)c(=O)n1CC(=O)NCc1ccc(N)nc1 | 11 | 3000 | – |
| Cc1nc(N)ccc1CNC(=O)Cn1cccc(NS(=O)(=O)Cc2ccccc2)c1=O | 26 | 20000 | – |
| Cc1nc(N)ccc1CNC(=O)Cn1c(C)ccc(NS(=O)(=O)Cc2ccccc2)c1=O.Cl | – | – | half-life [3]: 2.42 h; bioavailability [4]: 19%; bioavailability [5]: 44%; Cmax [6]: 990 nM; half-life [7]: 1.5 h |
| Cc1nc(N)ccc1CNC(=O)Cn1c(C)ccc(NS(=O)(=O)Cc2ccccc2)c1=O [L-374087] | – | – | Incidence of occlusion [8]: 0; Incidence of occlusion [9]: 2; Incidence of occlusion [10]: 1; Incidence of occlusion [11]: 5 |
